Measurements published in ChEMBL document CHEMBL3714764, “Diaminopyrimidine p2x3 and p2x2/3 receptor modulators for treatment of acute, sub-acute or chronic cough” (2015).
Active and inactive are the calls of the source. The rule behind the calls is not given here.

Tests used:
[1] = target: T1, P2X purinoceptor 3 (Rattus norvegicus) (UniProt P49654); experiment: (§1) Antagonist activity against rat P2X3 receptor expressed in CHO-K1 cells assessed as effect on calcium level incubated for 20 mins by Fluo-3AM dye based FLIPR assay; format: functional, cell-based
T1 sequence (whole entry): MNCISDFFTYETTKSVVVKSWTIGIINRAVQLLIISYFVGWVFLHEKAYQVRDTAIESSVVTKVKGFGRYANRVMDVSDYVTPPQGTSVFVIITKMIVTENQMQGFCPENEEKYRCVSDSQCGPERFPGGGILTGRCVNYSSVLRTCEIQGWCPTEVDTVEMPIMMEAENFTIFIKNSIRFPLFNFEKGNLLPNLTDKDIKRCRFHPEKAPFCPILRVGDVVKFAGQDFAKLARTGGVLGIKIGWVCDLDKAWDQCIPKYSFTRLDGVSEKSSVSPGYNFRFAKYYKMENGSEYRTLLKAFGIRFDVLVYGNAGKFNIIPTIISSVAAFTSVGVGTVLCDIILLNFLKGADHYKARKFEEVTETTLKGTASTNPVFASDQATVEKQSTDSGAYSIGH

Homo sapiens [2] = species on record: Homo sapiens; experiment: Anti-tussive activity in idiopathic/treatment-resistant chronic cough patient assessed as reduction in daytime cough per hour at 600 mg BID measured after 2 weeks during double-blind randomized placebo-controlled crossover trial; format: functional
Homo sapiens [3] = species on record: Homo sapiens; experiment: Anti-tussive activity in idiopathic/treatment-resistant chronic cough patient assessed as cough severity visual analogue scales at 600 mg BID measured after 2 weeks during double-blind randomized placebo-controlled crossover trial; format: functional
Homo sapiens [4] = species on record: Homo sapiens; experiment: Anti-tussive activity in idiopathic/treatment-resistant chronic cough patient assessed as urge to cough analogue scales at 600 mg BID measured after 2 weeks during double-blind randomized placebo-controlled crossover trial; format: functional
Homo sapiens [5] = species on record: Homo sapiens; experiment: Anti-tussive activity in idiopathic/treatment-resistant chronic cough patient assessed as global ratings of change and cough quality of life questionnaire at 600 mg BID measured after 2 weeks during double-blind randomized placebo-controlled crossover trial; format: functional
Homo sapiens [6] = species on record: Homo sapiens; experiment: Anti-tussive activity in patient with refractory chronic cough assessed as reduction in objective daytime cough counts at 600 mg BID measured after 2 weeks during double-blind randomized placebo-controlled crossover trial; format: functional
P2X purinoceptor 3 = target: T2, P2X purinoceptor 3 (Rattus norvegicus, UniProt P49654); experiment: as §1; format: functional, cell-based
T2 sequence (P49654 whole entry): T1 sequence (whole entry)

SMILES | inhibition [1] | other results
COc1cc(C(C)C)c(Oc2cnc(N)nc2N)cc1C(C)(C)O | Active | –
COc1cc(C(C)C)c(Oc2cnc(N)nc2N)cc1NC(N)=O | Active | –
COc1cc(C(C)C)c(Oc2cnc(N)nc2N)cc1C | Active | –
COc1cc(C(C)C)c(Oc2cnc(N)nc2N)cc1[N+](=O)[O-] | Active | –
CC(C)c1cc(OCC(F)(F)F)c(I)cc1Oc1cnc(N)nc1N | Active | –
COc1cc(Oc2cnc(N)nc2N)c(C(C)C)cc1OC | Active | –
COc1cc(C(C)C)c(Oc2cnc(N)nc2N)cc1C(C)OC (configuration not stated) | Active | –
COc1cc(C(C)C)c(Oc2cnc(N)nc2N)cc1I | Active | –
CCNS(=O)(=O)c1cc(Oc2cnc(N)nc2N)c(C(C)C)cc1OC | Active | –
COc1cc(C(C)C)c(Oc2cnc(N)nc2N)cc1C(N)=O | Active | –
COc1cc(C(C)C)c(Oc2cnc(N)nc2N)cc1C(=O)N(C)C | Active | –
CNS(=O)(=O)c1cc(Oc2cnc(N)nc2N)c(C(C)C)cc1OC | Active | –
CC(=O)c1cc(Oc2cnc(N)nc2N)c(C(C)C)cc1O | Active | –
COc1cc(C(C)C)c(Oc2cnc(N)nc2N)cc1C(F)(F)F | Active | –
COc1cc(C(C)C)c(Oc2cnc(N)nc2N)cc1OC(F)(F)F | Active | –
COc1cc(C(C)C)c(Oc2cnc(N)nc2N)cc1Cl | Active | –
COc1cc(C(C)C)c(Oc2cnc(N)nc2N)cc1C(=O)O | Active | –
COc1cc(C(C)C)c(Oc2cnc(N)nc2N)cc1S(N)(=O)=O [GEFAPIXANT] | Active | inhibition (INH) (Homo sapiens [2]): 75%; Activity (Homo sapiens [3]): -26 mm; Activity (Homo sapiens [4]): -21 mm; Activity_index (Homo sapiens [5]): -9; inhibition (INH) (Homo sapiens [6]): 75%
COc1cc(C(C)C)c(Oc2cnc(N)nc2N)cc1S(C)(=O)=O | Active | –

SMILES | inhibition [1] | other results
COc1cc(C(C)C)c(Oc2cnc(N)nc2N)cc1C(C)O (configuration not stated) | Active | –
CC(C)c1cc(O)c(I)cc1Cc1cnc(N)nc1N | Active | –
COc1cc(C(C)C)c(Oc2cnc(N)nc2N)cc1C#N | Active | –
COc1cc(C(C)C)c(Oc2cnc(N)nc2N)cc1NC(C)=O | Active | –
COc1cc(C(C)C)c(Oc2cnc(N)nc2N)cc1NC(=O)Nc1ccccc1 | Active | –
COc1cc(C(C)C)c(Oc2cnc(N)nc2N)cc1F | Active | –
CC(C)c1cc(OC(F)F)c(Cl)cc1Oc1cnc(N)nc1N | Active | –
COc1cc(C(C)C)c(Oc2cnc(N)nc2N)cc1C(C)C | Active | –
COc1cc(C(C)C)c(Oc2cnc(N)nc2N)cc1Br | Active | –
CCS(=O)(=O)c1cc(Oc2cnc(N)nc2N)c(C(C)C)cc1OC | Active | –
COc1cc(C(C)C)c(Oc2cnc(N)nc2N)cc1N | Active | –
CCOc1cc(C(C)C)c(Oc2cnc(N)nc2N)cc1I | Active | –
COc1cc(C(C)C)c(Oc2cnc(N)nc2N)cc1C(C)=O | Active | –
CNC(=O)c1cc(Oc2cnc(N)nc2N)c(C(C)C)cc1OC | Active | –
CC(C)c1cc(O)c(I)cc1Oc1cnc(N)nc1N | – | IC50 (P2X purinoceptor 3): 5.01 nM
CCNC(=O)Nc1cc(Oc2cnc(N)nc2N)c(C(C)C)cc1OC | Active | –
C#CCOc1cc(C(C)C)c(Oc2cnc(N)nc2N)cc1I | Active | –
C=Cc1cc(Oc2cnc(N)nc2N)c(C(C)C)cc1OC | Active | –
